Data as given in US10597388B2, “Pyridazinone herbicides” (FMC CORPORATION, priority 2014, dated 2020).

How the values were obtained:
Test in all cases: Test C greenhouse herbicide test, pre- and postemergence
Type in all cases: in vivo
[1] = tested on: ragweed (common ragweed, Ambrosia elatior)
Procedure, shortened: (§1)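 Each species was treated both before emergence, in a loam–sand soil mix, and after emergence, as 1- to 4-leaf seedlings in peat-based potting medium. Plants stayed in the greenhouse 13 to 15 d, then were scored from 0 (no effect) to 100 (complete control) relative to controls.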

[2] = tested on: soybean (Glycine max)
Procedure, shortened: as §1

[3] = tested on: crabgrass, large (large crabgrass, Digitaria sanguinalis)
Procedure, shortened: as §1

[4] = tested on: blackgrass (Alopecurus myosuroides)
Procedure, shortened: as §1

[5] = tested on: nutsedge, yellow (yellow nutsedge, Cyperus esculentus)
Procedure, shortened: as §1

[6] = tested on: velvetleaf (Abutilon theophrasti)
Procedure, shortened: as §1

[7] = tested on: barnyardgrass (Echinochloa crus-galli)
Procedure, shortened: as §1

[8] = tested on: corn (Zea mays)
Procedure, shortened: as §1

[9] = tested on: galium (catchweed bedstraw, Galium aparine)
Procedure, shortened: as §1

[10] = tested on: foxtail, giant (giant foxtail, Setaria faberii)
Procedure, shortened: as §1

[11] = tested on: waterhemp (common waterhemp, Amaranthus rudis)
Procedure, shortened: as §1

[12] = tested on: oilseed rape (Brassica napus)
Procedure, shortened: as §1

[13] = tested on: lambsquarters (Chenopodium album)
Procedure, shortened: as §1

[14] = tested on: morningglory (Ipomoea coccinea)
Procedure, shortened: as §1

[15] = tested on: ryegrass, Italian (Italian ryegrass, Lolium multiflorum)
Procedure, shortened: as §1

[16] = Postemergence, 31 g ai/ha, scale 0 to 100 (0 no effect, 100 complete control)
[17] = Postemergence, 62 g ai/ha, 0 to 100 scale (0 no effect, 100 complete control)
[18] = Postemergence, 250 g ai/ha, scale 0 to 100, 0 no effect, 100 complete control, 13 to 15 d
[19] = Preemergence, 31 g ai/ha, scale 0 to 100, 0 is no effect, 100 is complete control
[20] = Preemergence, 62 g ai/ha, scale 0 to 100, 0 is no effect, 100 is complete control
[21] = Preemergence, 125 g ai/ha, scale 0 to 100, 0 is no effect, 100 is complete control
[22] = Preemergence, 250 g ai/ha, scale 0 to 100, 0 no effect, 100 complete control
[23] = postemergence, 125 g ai/ha, scale 0 to 100, 0 no effect, 100 complete control

SMILES: CC(=O)Oc1c(C)nn(C)c(=O)c1-c1c(C)sc2ccc(C(F)(F)F)cc12 [Compound 132]
- Plant response rating, Ragweed [1, 16]: 65
- Ragweed plant response rating [1, 17]: 95
- Plant response rating, Ragweed [1, 18]: 98
- Plant response rating, Ragweed [1, 19]: 70
- Plant response rating, Ragweed [1, 20]: 85
- Plant response rating, Ragweed [1, 21]: 95
- Ragweed plant response rating [1, 22]: 100
- Ragweed plant response rating [1, 23]: 95
- Plant response rating, Soybean [2, 16]: 0
- Soybean plant response rating [2, 17]: 0
- Plant response rating, Soybean [2, 18]: 20
- Plant response rating, Soybean [2, 19]: 0
- Plant response rating, Soybean [2, 20]: 0
- Plant response rating, Soybean [2, 21]: 0
- Soybean plant response rating [2, 22]: 0
- Soybean plant response rating [2, 23]: 0
- Plant response rating, Crabgrass, Large [3, 16]: 15
- Crabgrass, Large plant response rating [3, 17]: 15
- Plant response rating, Crabgrass, Large [3, 18]: 25
- Plant response rating, Crabgrass, Large [3, 19]: 0
- Plant response rating, Crabgrass, Large [3, 20]: 0
- Plant response rating, Crabgrass, Large [3, 21]: 10
- Crabgrass, Large plant response rating [3, 22]: 40
- Crabgrass, Large plant response rating [3, 23]: 10
- Plant response rating, Blackgrass [4, 16]: 5
- Blackgrass plant response rating [4, 17]: 5
- Plant response rating, Blackgrass [4, 18]: 45
- Plant response rating, Blackgrass [4, 19]: 20
- Plant response rating, Blackgrass [4, 20]: 45
- Plant response rating, Blackgrass [4, 21]: 40
- Blackgrass plant response rating [4, 22]: 50
- Blackgrass plant response rating [4, 23]: 25
- Plant response rating, Nutsedge, Yellow [5, 16]: 30
- Nutsedge, Yellow plant response rating [5, 17]: 55
- Plant response rating, Nutsedge, Yellow [5, 18]: 85
- Plant response rating, Nutsedge, Yellow [5, 19]: 10
- Plant response rating, Nutsedge, Yellow [5, 20]: 35
- Plant response rating, Nutsedge, Yellow [5, 21]: 45
- Nutsedge, Yellow plant response rating [5, 22]: 75
- Nutsedge, Yellow plant response rating [5, 23]: 75
- Plant response rating, Velvetleaf [6, 16]: 30
- Velvetleaf plant response rating [6, 17]: 40
- Plant response rating, Velvetleaf [6, 18]: 75
- Plant response rating, Velvetleaf [6, 19]: 60
- Plant response rating, Velvetleaf [6, 20]: 60
- Plant response rating, Velvetleaf [6, 21]: 90
- Velvetleaf plant response rating [6, 22]: 95
- Velvetleaf plant response rating [6, 23]: 65
- Plant response rating, Barnyardgrass [7, 16]: 15
- Barnyardgrass plant response rating [7, 17]: 30
- Plant response rating, Barnyardgrass ([7]; Postemergence, 125 g ai/ha, scale 0 to 100, 0 is no effect, 100 is complete control): 25
- Plant response rating, Barnyardgrass [7, 18]: 25
- Plant response rating, Barnyardgrass [7, 19]: 0
- Plant response rating, Barnyardgrass [7, 20]: 5
- Plant response rating, Barnyardgrass [7, 21]: 35
- Barnyardgrass plant response rating [7, 22]: 45
- Plant response rating, Corn [8, 16]: 0
- Corn plant response rating [8, 17]: 5
- Plant response rating, Corn [8, 18]: 10
- Plant response rating, Corn [8, 19]: 0
- Plant response rating, Corn [8, 20]: 0
- Plant response rating, Corn [8, 21]: 0
- Corn plant response rating [8, 22]: 10
- Corn plant response rating [8, 23]: 5
- Plant response rating, Galium [9, 16]: 90
- Galium plant response rating [9, 17]: 95
- Plant response rating, Galium [9, 18]: 95
- Plant response rating, Galium [9, 19]: 90
- Plant response rating, Galium [9, 20]: 90
- Plant response rating, Galium [9, 21]: 90
- Galium plant response rating [9, 22]: 98
- Galium plant response rating [9, 23]: 95
- Plant response rating, Foxtail, Giant [10, 16]: 30
- Foxtail, Giant plant response rating [10, 17]: 40
- Plant response rating, Foxtail, Giant [10, 18]: 75
- Plant response rating, Foxtail, Giant [10, 19]: 40
- Plant response rating, Foxtail, Giant [10, 20]: 70
- Plant response rating, Foxtail, Giant [10, 21]: 85
- Foxtail, Giant plant response rating [10, 22]: 98
- Foxtail, Giant plant response rating [10, 23]: 60
- Plant response rating, Waterhemp [11, 16]: 40
- Waterhemp plant response rating [11, 17]: 60
- Plant response rating, Waterhemp [11, 18]: 75
- Plant response rating, Waterhemp [11, 19]: 90
- Plant response rating, Waterhemp [11, 20]: 85
- Plant response rating, Waterhemp [11, 21]: 95
- Waterhemp plant response rating [11, 22]: 98
- Waterhemp plant response rating [11, 23]: 80
- Plant response rating, Oilseed Rape [12, 16]: 5
- Oilseed Rape plant response rating [12, 17]: 10
- Plant response rating, Oilseed Rape [12, 18]: 40
- Plant response rating, Oilseed Rape [12, 19]: 70
- Plant response rating, Oilseed Rape [12, 20]: 85
- Plant response rating, Oilseed Rape [12, 21]: 30
- Oilseed Rape plant response rating [12, 22]: 90
- Oilseed Rape plant response rating [12, 23]: 5
- Plant response rating, Lambsquarters [13, 16]: 90
- Lambsquarters plant response rating [13, 17]: 90
- Plant response rating, Lambsquarters [13, 18]: 100
- Plant response rating, Lambsquarters [13, 19]: 50
- Plant response rating, Lambsquarters [13, 20]: 60
- Plant response rating, Lambsquarters [13, 21]: 85
- Lambsquarters plant response rating [13, 22]: 100
- Lambsquarters plant response rating [13, 23]: 100
- Plant response rating, Morningglory [14, 16]: 65
- Morningglory plant response rating [14, 17]: 80
- Plant response rating, Morningglory [14, 18]: 98
- Plant response rating, Morningglory [14, 19]: 40
- Plant response rating, Morningglory [14, 20]: 65
- Plant response rating, Morningglory [14, 21]: 95
- Morningglory plant response rating [14, 22]: 90
- Morningglory plant response rating [14, 23]: 95
- Plant response rating, Ryegrass, Italian [15, 16]: 80
- Ryegrass, Italian plant response rating [15, 17]: 85
- Plant response rating, Ryegrass, Italian [15, 18]: 95
- Plant response rating, Ryegrass, Italian [15, 19]: 45
- Plant response rating, Ryegrass, Italian [15, 20]: 90
- Plant response rating, Ryegrass, Italian [15, 21]: 95
- Ryegrass, Italian plant response rating [15, 22]: 95
- Ryegrass, Italian plant response rating [15, 23]: 95
